Values after ≈ are worked out from the molar mass of the structure shown. Read-outs that look alike come from different tables or passages of the source.
Columns and labels:
[1] = test system: 3 sensitive and 7 MDR A. baumannii clinical isolates; assay: MIC, Hungarian clinical isolates and controls (384-well); assay type: cell-based; conditions: n=10; MIC […] µg/mL
[2] = test system: 100 A. baumannii strains (50 MDR, 50 non-MDR); assay: MIC broth microdilution at IHMA Europe, panel of 100 strains; assay type: cell-based; conditions: Acinetobacter baumannii, read-out: MIC

With `CO/N=C(\C(=O)N[C@@H]1C(=O)N2C(C(=O)[O-])=C(C[N+]3(C)CCCC3)CS[C@H]12)c1csc(N)n1` [Cefepime, cefepime] the “Cumulative % at MIC” value [1] was 20%, the MIC ([2]; A. baumannii IHMA 1769782, Israel 2018, MDR) was > 32 µg/mL and the MIC ([2]; A. baumannii IHMA 1769910, Israel 2018, Non-MDR) was 8 µg/mL (≈ 16.6 µM). For the same compound, the MIC ([2]; A. baumannii IHMA 1790317, Czech Republic 2018, Non-MDR) was 1 µg/mL (≈ 2.08 µM), the MIC ([2]; A. baumannii IHMA 1790916, Romania 2018, Non-MDR) was 0.5 µg/mL (≈ 1.04 µM) and the MIC ([2]; A. baumannii IHMA 1791877, Israel 2018, MDR) was > 32 µg/mL. The MIC ([2]; A. baumannii IHMA 1792961, Jordan 2018, MDR) was > 32 µg/mL, the MIC ([2]; A. baumannii IHMA 1795669, Tunisia 2018, Non-MDR) was 4 µg/mL (≈ 8.32 µM) and the MIC ([2]; A. baumannii IHMA 1814276, Lebanon 2018, MDR) was > 32 µg/mL. The MIC ([2]; A. baumannii IHMA 1815198, Kuwait 2018, MDR) was > 32 µg/mL, the MIC ([2]; A. baumannii IHMA 1815856, Israel 2018, MDR) was > 32 µg/mL and the MIC ([2]; A. baumannii IHMA 1829500, Georgia 2018, Non-MDR) was 1 µg/mL (≈ 2.08 µM). The MIC ([2]; A. baumannii IHMA 1830924, United Kingdom 2018, Non-MDR) was 4 µg/mL (≈ 8.32 µM), the MIC ([2]; A. baumannii IHMA 1849819, Kuwait 2018, MDR) was > 32 µg/mL and the MIC ([2]; A. baumannii IHMA 1849829, Kuwait 2018, Non-MDR) was 1 µg/mL (≈ 2.08 µM). The MIC ([2]; A. baumannii IHMA 1857118, Slovenia 2018, Non-MDR) was 1 µg/mL (≈ 2.08 µM), the MIC ([2]; A. baumannii IHMA 1863631, France 2018, Non-MDR) was 1 µg/mL (≈ 2.08 µM) and the MIC ([2]; A. baumannii IHMA 1884428, Italy 2018, Non-MDR) was 1 µg/mL (≈ 2.08 µM). For the same compound, the MIC ([2]; A. baumannii IHMA 1884990, Germany 2018, Non-MDR) was 1 µg/mL (≈ 2.08 µM), the MIC ([2]; A. baumannii IHMA 1900538, Turkey 2018, Non-MDR) was 0.5 µg/mL (≈ 1.04 µM) and the MIC ([2]; A. baumannii IHMA 1913773, Kenya 2018, Non-MDR) was 1 µg/mL (≈ 2.08 µM). For the same compound, the MIC ([2]; A. baumannii IHMA 1926285, Qatar 2018, Non-MDR) was ≤ 0.25 µg/mL, the MIC ([2]; A. baumannii IHMA 1926288, Qatar 2018, MDR) was 32 µg/mL (≈ 66.6 µM) and the MIC ([2]; A. baumannii IHMA 1963732, Turkey 2019, MDR) was 32 µg/mL (≈ 66.6 µM). For the same compound, the MIC ([2]; A. baumannii IHMA 1967860, Spain 2019, Non-MDR) was 4 µg/mL (≈ 8.32 µM), the MIC ([2]; A. baumannii IHMA 1971673, Latvia 2019, MDR) was > 32 µg/mL and the MIC ([2]; A. baumannii IHMA 1983151, Greece 2019, MDR) was 32 µg/mL (≈ 66.6 µM). The MIC ([2]; A. baumannii IHMA 1984665, Lithuania 2019, MDR) was > 32 µg/mL, the MIC ([2]; A. baumannii IHMA 1986738, Turkey 2019, MDR) was > 32 µg/mL and the MIC ([2]; A. baumannii IHMA 1987162, Croatia 2019, MDR) was > 32 µg/mL. The MIC ([2]; A. baumannii IHMA 1993615, Turkey 2019, MDR) was > 32 µg/mL, the MIC ([2]; A. baumannii IHMA 1994284, Italy 2019, MDR) was 32 µg/mL (≈ 66.6 µM) and the MIC ([2]; A. baumannii IHMA 1995161, Czech Republic 2019, Non-MDR) was 1 µg/mL (≈ 2.08 µM). The MIC ([2]; A. baumannii IHMA 1997936, Morocco 2019, Non-MDR) was 1 µg/mL (≈ 2.08 µM), the MIC ([2]; A. baumannii IHMA 1999178, Belgium 2019, Non-MDR) was 1 µg/mL (≈ 2.08 µM) and the MIC ([2]; A. baumannii IHMA 2003279, Turkey 2019, MDR) was > 32 µg/mL. It also gave an MIC ([2]; A. baumannii IHMA 2014931, South Africa 2019, Non-MDR) of 1 µg/mL (≈ 2.08 µM), an MIC ([2]; A. baumannii IHMA 2019315, Romania 2019, Non-MDR) of 0.5 µg/mL (≈ 1.04 µM) and an MIC ([2]; A. baumannii IHMA 2020360, Croatia 2019, MDR) of 32 µg/mL (≈ 66.6 µM). For the same compound, the MIC ([2]; A. baumannii IHMA 2031511, Greece 2019, Non-MDR) was 1 µg/mL (≈ 2.08 µM), the MIC ([2]; A. baumannii IHMA 2031524, Greece 2019, MDR) was > 32 µg/mL and the MIC ([2]; A. baumannii IHMA 2034657, Tunisia 2019, Non-MDR) was 1 µg/mL (≈ 2.08 µM). The MIC ([2]; A. baumannii IHMA 2035089, Serbia 2019, MDR) was 32 µg/mL (≈ 66.6 µM), the MIC ([2]; A. baumannii IHMA 2035134, Serbia 2019, Non-MDR) was 1 µg/mL (≈ 2.08 µM) and the MIC ([2]; A. baumannii IHMA 2038976, Hungary 2019, MDR) was 32 µg/mL (≈ 66.6 µM). The MIC ([2]; A. baumannii IHMA 2051503, Serbia 2019, MDR) was > 32 µg/mL, the MIC ([2]; A. baumannii IHMA 2058329, Slovenia 2019, Non-MDR) was 1 µg/mL (≈ 2.08 µM) and the MIC ([2]; A. baumannii IHMA 2065587, France 2019, Non-MDR) was 1 µg/mL (≈ 2.08 µM). The MIC ([2]; A. baumannii IHMA 2099294, United Kingdom 2019, Non-MDR) was 4 µg/mL (≈ 8.32 µM), the MIC ([2]; A. baumannii IHMA 2129256, Qatar 2019, Non-MDR) was 1 µg/mL (≈ 2.08 µM) and the MIC ([2]; A. baumannii IHMA 2154584, Israel 2020, MDR) was > 32 µg/mL. The MIC ([2]; A. baumannii IHMA 2155340, Kenya 2020, MDR) was > 32 µg/mL.

From article PMC10041525, “New Dual Inhibitors of Bacterial Topoisomerases with Broad-Spectrum Antibacterial Activity and In Vivo Efficacy against Vancomycin-Intermediate Staphylococcus aureus” (Journal of Medicinal Chemistry, 2023)
